Experimental data from PubChem BioAssay (NCI).
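Method: 48-hour compound exposure of cells in 96-well plates, five concentrations, linear interpolation of endpoints. GI50 marks 50% less growth. TGI: concentration producing complete growth inhibition.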

Key:
Experiment in all cases: NCI tumour cell line growth inhibition, 48 h
[1] = test system: OVCAR-5 ovarian
[2] = test system: IGROV1 ovarian
[3] = test system: HCC-2998 colon
[4] = test system: 786-0 renal
[5] = test system: EKVX NSCLC
[6] = test system: MOLT-4 leukemia
[7] = test system: HL-60(TB) leukemia
[8] = test system: CCRF-CEM leukemia
[9] = test system: A498 renal
[10] = test system: HOP-92 NSCLC

## CCOC(=O)c1ccc(N2C(=O)/C(=C\OC)c3ccccc3C2=O)cc1
[1]
  TGI: > 100 µM
[2]
  TGI: > 100 µM
[3]
  TGI: > 100 µM
[4]
  TGI: > 100 µM
[5]
  TGI: > 100 µM
[6]
  TGI: 89.3 µM

## COC(=O)Nc1nc2ccccc2c(=O)[nH]1
[7]
  TGI: > 100 µM
[1]
  TGI: > 100 µM
[2]
  TGI: > 100 µM
[3]
  TGI: > 100 µM
[4]
  TGI: > 100 µM
[5]
  TGI: > 100 µM
[8]
  TGI: > 100 µM
[6]
  TGI: > 100 µM

## CC1(C)N=C(N)N=C(N)N1c1cc(Cl)ccc1Cl
[7]
  GI50: 74.7 µM
  TGI: > 100 µM
[1]
  GI50: > 100 µM
  TGI: > 100 µM
[2]
  GI50: 27.6 µM
  TGI: 88.6 µM
[3]
  GI50: > 100 µM
  TGI: > 100 µM
[4]
  GI50: > 100 µM
  TGI: > 100 µM
[5]
  GI50: > 100 µM
  TGI: > 100 µM
[8]
  GI50: > 100 µM
  TGI: > 100 µM
[6]
  GI50: > 100 µM
  TGI: > 100 µM
[9]
  GI50: > 100 µM
  TGI: > 100 µM

## CCSc1nc(N=Cc2cccs2)c2cn[nH]c2n1
[1]
  GI50: 14.2 µM
  TGI: 50.9 µM
[2]
  GI50: 23.6 µM
  TGI: > 100 µM
[3]
  GI50: 2.87 µM
  TGI: 11.3 µM
[4]
  GI50: 33.4 µM
  TGI: > 100 µM
[5]
  GI50: 67.8 µM
  TGI: > 100 µM
[6]
  GI50: 35.8 µM
  TGI: > 100 µM
[9]
  GI50: 10.9 µM
  TGI: 38.1 µM

## COc1ccc(-c2nc(-c3ccccc3)c(-c3ccccc3)n2C2CC2)cc1OC1CCCC1
[7]
  GI50: 28.3 µM
  TGI: 141 µM
[1]
  GI50: > 165 µM
  TGI: > 165 µM
[2]
  GI50: 77.8 µM
  TGI: > 165 µM
[4]
  GI50: 98.2 µM
  TGI: > 165 µM
[8]
  GI50: 33.3 µM
  TGI: > 165 µM
[6]
  GI50: 45.7 µM
  TGI: > 165 µM
[9]
  GI50: 9.57 µM
  TGI: > 165 µM

## O=[N+]([O-])/C=C/c1c[nH]c2ccccc12
[7]
  GI50: 6.5 µM
  TGI: 25 µM
[1]
  GI50: 17.8 µM
  TGI: 35.2 µM
[2]
  GI50: 13.3 µM
  TGI: 27.6 µM
[3]
  GI50: 4.35 µM
  TGI: 12.5 µM
[4]
  GI50: 13.5 µM
  TGI: 27.2 µM
[5]
  GI50: 19.3 µM
  TGI: 45.1 µM
[8]
  GI50: 15.8 µM
  TGI: > 100 µM
[6]
  GI50: 13.9 µM
  TGI: 35.5 µM
[9]
  GI50: 16.2 µM
  TGI: 31.2 µM

## O=C1C(=O)N(c2ccc(Cl)c(Cl)c2)C(=O)C(=O)C1c1nc2ccccc2o1
[7]
  TGI: 53 µM
[1]
  TGI: > 100 µM
[2]
  TGI: > 100 µM
[3]
  TGI: > 100 µM
[4]
  TGI: > 100 µM
[10]
  TGI: > 100 µM
[6]
  TGI: > 100 µM

## CC(=O)OC(C)(C)/C=C/C(=O)[C@](C)(O)[C@H]1[C@H](O)C[C@@]2(C)[C@@H]3CC=C4[C@@H](C[C@H](O)C(=O)C4(C)C)[C@]3(C)C(=O)C[C@]12C
[7]
  TGI: < 0.01 µM
[1]
  TGI: 13.8 µM
[2]
  TGI: < 0.0132 µM
[3]
  TGI: 4.45 µM
[4]
  TGI: 14.8 µM
[5]
  TGI: < 0.0221 µM
[8]
  TGI: 0.423 µM
[6]
  TGI: 2.78 µM
[9]
  TGI: < 0.01 µM

## CC[N+](CC)(CC)CCCn1c2c(c3ccccc3c1=O)C(=O)c1ccccc1-2
[7]
  GI50: 58.6 µM
  TGI: > 100 µM
[1]
  GI50: 16.5 µM
  TGI: 48.6 µM
[2]
  GI50: 3.1 µM
  TGI: 24.1 µM
[3]
  GI50: 5.62 µM
  TGI: 20.9 µM
[4]
  GI50: 7.35 µM
  TGI: 32 µM
[8]
  GI50: 2.99 µM
  TGI: 23.6 µM
[10]
  GI50: 17.9 µM
  TGI: > 100 µM
[6]
  GI50: 5.58 µM
  TGI: > 100 µM

## COC(=O)c1ccc(N=NN(C)CO)cc1
[7]
  TGI: > 100 µM
[1]
  TGI: > 100 µM
[2]
  TGI: > 100 µM
[3]
  TGI: > 100 µM
[4]
  TGI: > 100 µM
[5]
  TGI: > 100 µM
[8]
  TGI: > 100 µM
[6]
  TGI: > 100 µM
[9]
  TGI: > 100 µM

## CC(=O)Nc1ccc(C2[C@H]3C(=O)N(c4ccc(Cc5ccc(N6C(=O)[C@@H]7ON(c8ccccc8)C(c8ccc(NC(C)=O)cc8)[C@@H]7C6=O)cc5)cc4)C(=O)[C@H]3ON2c2ccccc2)cc1 (some centres undefined)
[7]
  TGI: > 100 µM
[1]
  TGI: > 100 µM
[2]
  TGI: > 100 µM
[3]
  TGI: > 100 µM
[4]
  TGI: > 100 µM
[5]
  TGI: > 100 µM
[8]
  TGI: > 100 µM
[6]
  TGI: > 100 µM
[9]
  TGI: > 100 µM

## COc1cc(/C=C/C(=O)c2ccc(Cl)cc2)ccc1OS(=O)(=O)c1ccc(C)cc1
[7]
  GI50: 3.29 µM
  TGI: 14.8 µM
[1]
  GI50: 16.7 µM
  TGI: 33.2 µM
[2]
  GI50: 14.5 µM
  TGI: 41.7 µM
[3]
  GI50: 12.4 µM
  TGI: 26.7 µM
[4]
  GI50: 10.7 µM
  TGI: 24.6 µM
[8]
  GI50: 2.46 µM
  TGI: 7.19 µM
[6]
  GI50: 2.76 µM
  TGI: 7.74 µM
[9]
  GI50: 28.8 µM
  TGI: > 100 µM

## O=C(CCCn1ccnc1[N+](=O)[O-])NCCn1ccnc1
[7]
  TGI: > 100 µM
[1]
  TGI: > 100 µM
[2]
  TGI: > 100 µM
[3]
  TGI: > 100 µM
[4]
  TGI: > 100 µM
[8]
  TGI: > 100 µM
[6]
  TGI: > 100 µM
[9]
  TGI: > 100 µM

## COC(=O)C(Nc1ccc(OC)cc1)c1ccccc1 (centres undefined)
[1]
  TGI: > 100 µM
[2]
  TGI: > 100 µM
[4]
  TGI: > 100 µM
[5]
  TGI: > 100 µM
[8]
  TGI: > 100 µM
[6]
  TGI: > 100 µM

## COc1ccc2[nH]c(Cl)c(/C=C3/C(=O)N(C)c4ccccc43)c2c1
[7]
  GI50: > 100 µM
  TGI: > 100 µM
[1]
  GI50: > 100 µM
  TGI: > 100 µM
[2]
  GI50: > 100 µM
  TGI: > 100 µM
[4]
  GI50: > 100 µM
  TGI: > 100 µM
[5]
  GI50: > 100 µM
  TGI: > 100 µM
[8]
  GI50: 43.6 µM
  TGI: > 100 µM
[10]
  GI50: 91.3 µM
  TGI: > 100 µM
[6]
  GI50: 79.1 µM
  TGI: > 100 µM
